According to ChEMBL document CHEMBL2034920, “Protuboxepin A, a marine fungal metabolite, inducing metaphase arrest and chromosomal misalignment in tumor cells” (Bioorg Med Chem, 2012):
Values belong to the molecule of their own block, whether it stands above or below them. Calls of active or inactive are those of the source. No cut-off for these calls is given here.

Assays:
[1] = Cell cycle arrest in human Hep3B cells assessed as increase of cells with misaligned chromosomes at 10 nM after 24 hrs by immunofluorescence assay; format: functional, cell-based; settings: Hep 3B2
[2] = test system: Hep 3B2; experiment: Disruption of alpha-tubulin networks in human Hep3B cells at 10 nM after 18 hrs by immunofluorescence assay; format: cell-based
[3] = target: Tubulin (Homo sapiens) (UniProt P68371+Q9H4B7+P0DPH7+P68366+Q13509+Q71U36+P04350+Q3ZCM7+P07437+P68363+Q9BQE3+Q6PEY2+Q13885+Q9BVA1+Q9BUF5); experiment: Disruption of gamma-tubulin networks in human Hep3B cells at 10 nM after 18 hrs by immunofluorescence assay; format: cell-based; settings: Hep 3B2
[4] = test system: Hep 3B2; experiment: Disruption of alpha-tubulin networks in human Hep3B cells assessed as increasing acetylated-tubulin signal at 10 nM after 18 hrs by immunofluorescence assay; format: cell-based
[5] = test system: Hep 3B2; experiment: Disruption of alpha-tubulin networks in human Hep3B cells assessed as induction of polyglutamylated-tubulin bleb formation at 10 nM after 18 hrs by immunofluorescence assay; format: cell-based
[6] = Cell cycle arrest in human Hep3B cells assessed as induction of prometaphase arrest at 10 nM after 24 hrs by immunofluorescence assay; format: functional, cell-based; settings: Hep 3B2
[7] = Cell cycle arrest in human Hep3B cells assessed as accumulation at G2/M phase at 160 uM after 24 hrs by flow cytometry (reference value: 24.37%); format: functional, cell-based; settings: Hep 3B2
[8] = test system: HeLa; experiment: Inhibition of microtubule dynamics in human HeLa cells expressing EB1-EGFP at 80 to 160 uM after 1 min by image time-lapse analysis; format: functional, cell-based
[9] = test system: Hep 3B2; experiment: Disruption of alpha-tubulin networks in human Hep3B cells assessed as induction of polyglutamylated-tubulin bleb formation at 80 to 160 uM after 18 hrs by immunofluorescence assay; format: cell-based
[10] = target: T1, Tubulin (Sus scrofa) (UniProt P02554+P02550); experiment: Induction of porcine tubulin polymerization at 160 uM measured for every 1 min for 60 mins by spectrophotometry; format: protein assay
[11] = test system: Hep 3B2; experiment: Induction of apoptosis in human Hep3B cells assessed as induction of caspase-3 cleavage at 27 to 160 uM after 18 hrs by Western blotting analysis; format: functional, cell-based
[12] = test system: Hep 3B2; experiment: Induction of chromosome misalignment in nucleus of human Hep3B cells at 80 to 160 uM after 18 hrs by immunofluorescence staining; format: functional, cell-based
[13] = Cell cycle arrest in human Hep3B cells assessed as accumulation at subG1 phase at 80 uM after 24 hrs by flow cytometry (reference value: 1.14%); format: functional, cell-based; settings: Hep 3B2
[14] = Cell cycle arrest in human Hep3B cells assessed as accumulation at G0/G1 phase at 160 uM after 24 hrs by flow cytometry (reference value: 52.99%); format: functional, cell-based; settings: Hep 3B2
[15] = Cell cycle arrest in human Hep3B cells assessed as increased the phosphorylation of histone H3 at 80 to 160 uM after 24 hrs by immunofluorescence assay; format: functional, cell-based; settings: Hep 3B2
[16] = Cell cycle arrest in human Hep3B cells assessed as accumulation at subG1 phase at 160 uM after 24 hrs by flow cytometry (reference value: 1.14%); format: functional, cell-based; settings: Hep 3B2
[17] = Cell cycle arrest in human Hep3B cells assessed as accumulation at S phase at 27 uM after 24 hrs by flow cytometry (reference value: 11.18%); format: functional, cell-based; settings: Hep 3B2
[18] = Binding affinity to porcine brain alphabeta-tubulin using ForteBio's Octet system; format: tissue-based, Sus scrofa
[19] = Cell cycle arrest in human Hep3B cells assessed as accumulation at subG1 phase at 0.5 uM after 24 hrs by flow cytometry (reference value: 1.14%); format: functional, cell-based; settings: Hep 3B2
[20] = test system: Hep 3B2; experiment: Induction of apoptosis in human Hep3B cells assessed as induction of PARP cleavage at 27 to 160 uM after 18 hrs by Western blotting analysis; format: functional, cell-based
[21] = test system: Hep 3B2; experiment: Induction of apoptosis in human Hep3B cells assessed as roundup morphology after 48 hrs by microscopic analysis; format: functional, cell-based
[22] = test system: MDA-MB-231; experiment: Induction of apoptosis in human MDA-MB-231 cells assessed as roundup morphology after 24 hrs by microscopic analysis; format: functional, cell-based
[23] = Cell cycle arrest in human Hep3B cells assessed as accumulation at M phase at 80 uM after 24 hrs by flow cytometry (reference value: 6.24 +/- 2.14%); format: functional, cell-based; settings: Hep 3B2
[24] = Cell cycle arrest in human Hep3B cells assessed as accumulation at S phase at 160 uM after 24 hrs by flow cytometry (reference value: 11.18%); format: functional, cell-based; settings: Hep 3B2
[25] = Cell cycle arrest in human Hep3B cells assessed as accumulation at G2/M phase at 80 uM after 24 hrs by flow cytometry (reference value: 24.37%); format: functional, cell-based; settings: Hep 3B2
[26] = Cell cycle arrest in human Hep3B cells assessed as accumulation at subG1 phase at 27 uM after 24 hrs by flow cytometry (reference value: 1.14%); format: functional, cell-based; settings: Hep 3B2
[27] = Cell cycle arrest in human Hep3B cells assessed as accumulation at G2/M phase at 27 uM after 24 hrs by flow cytometry (reference value: 24.37%); format: functional, cell-based; settings: Hep 3B2
[28] = test system: Hep 3B2; experiment: Disruption of alpha-tubulin networks in human Hep3B cells at 80 to 160 uM after 18 hrs by immunofluorescence assay; format: cell-based
[29] = Cell cycle arrest in human Hep3B cells assessed as accumulation at G0/G1 phase at 27 uM after 24 hrs by flow cytometry (reference value: 52.99%); format: functional, cell-based; settings: Hep 3B2
[30] = test system: Hep 3B2; experiment: Disruption of alpha-tubulin networks in human Hep3B cells assessed as increasing acetylated-tubulin signal at 80 to 160 uM after 18 hrs by immunofluorescence assay; format: cell-based
[31] = test system: Hep 3B2; experiment: Induction of apoptosis in human Hep3B cells assessed as roundup morphology after 24 hrs by microscopic analysis; format: functional, cell-based
[32] = target: Cyclin-dependent kinase 1 (Homo sapiens) (UniProt P06493); experiment: Inhibition of CDC2 phosphorylation at Tyr15 in human Hep3B cells at 160 uM after 18 hrs by Western blotting analysis; format: cell-based; settings: Hep 3B2
[33] = organism: Homo sapiens; experiment: Induction of Histone H3 Ser10 phosphorylation in human […] cells at 80 to 160 uM after 18 hrs by immunofluorescence staining; format: cell-based
[34] = Cell cycle arrest in human Hep3B cells assessed as accumulation at G0/G1 phase at 80 uM after 24 hrs by flow cytometry (reference value: 52.99%); format: functional, cell-based; settings: Hep 3B2
[35] = Cell cycle arrest in human Hep3B cells assessed as accumulation at M phase at 160 uM after 24 hrs by flow cytometry (reference value: 6.24 +/- 2.14%); format: functional, cell-based; settings: Hep 3B2
[36] = target: T1, Tubulin (Sus scrofa); experiment: Induction of porcine tubulin polymerization at 80 uM measured for every 1 min for 60 mins by spectrophotometry; format: protein assay
[37] = Cell cycle arrest in human Hep3B cells assessed as accumulation at S phase at 0.5 uM after 24 hrs by flow cytometry (reference value: 11.18%); format: functional, cell-based; settings: Hep 3B2
[38] = target: Apoptosis regulator Bcl-2 (Homo sapiens) (UniProt P10415); experiment: Induction of Bcl-2 phosphorylation at Ser70 in human Hep3B cells at 160 uM after 18 hrs by Western blotting analysis; format: cell-based; settings: Hep 3B2
[39] = test system: Hep 3B2; experiment: Induction of chromosome mislocalization in human Hep3B cells at 80 to 160 uM after 18 hrs by immunofluorescence assay; format: functional, cell-based
[40] = Cell cycle arrest in human Hep3B cells assessed as accumulation at S phase at 80 uM after 24 hrs by flow cytometry (reference value: 11.18%); format: functional, cell-based; settings: Hep 3B2
[41] = Cell cycle arrest in human Hep3B cells assessed as induction of chromosome misalignment in nuclei at 80 to 160 uM after 24 hrs by immunofluorescence assay; format: functional, cell-based; settings: Hep 3B2
[42] = test system: MDA-MB-231; experiment: Induction of apoptosis in human MDA-MB-231 cells assessed as roundup morphology after 48 hrs by microscopic analysis; format: functional, cell-based
[43] = test system: HeLa; experiment: Up-regulation of geminin-GFP in human HeLa cells at 160 uM after 18 hrs by FUCCI analysis; format: functional, cell-based
[44] = Cell cycle arrest in human Hep3B cells assessed as accumulation at G2/M phase at 0.5 uM after 24 hrs by flow cytometry (reference value: 24.37%); format: functional, cell-based; settings: Hep 3B2

T1 sequence (P02550 whole entry, looked up): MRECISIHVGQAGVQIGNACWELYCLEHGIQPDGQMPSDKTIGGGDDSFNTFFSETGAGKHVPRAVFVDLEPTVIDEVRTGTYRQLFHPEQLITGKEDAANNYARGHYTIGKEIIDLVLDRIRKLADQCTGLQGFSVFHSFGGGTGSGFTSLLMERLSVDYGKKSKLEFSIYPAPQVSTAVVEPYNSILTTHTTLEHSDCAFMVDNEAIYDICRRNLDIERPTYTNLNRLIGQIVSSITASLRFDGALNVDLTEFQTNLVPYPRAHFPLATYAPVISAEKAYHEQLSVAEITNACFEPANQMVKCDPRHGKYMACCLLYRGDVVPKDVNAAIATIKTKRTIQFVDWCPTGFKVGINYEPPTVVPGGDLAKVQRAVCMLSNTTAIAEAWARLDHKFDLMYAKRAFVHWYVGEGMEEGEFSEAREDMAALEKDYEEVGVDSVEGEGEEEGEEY
T1 sequence (P02554 whole entry, looked up): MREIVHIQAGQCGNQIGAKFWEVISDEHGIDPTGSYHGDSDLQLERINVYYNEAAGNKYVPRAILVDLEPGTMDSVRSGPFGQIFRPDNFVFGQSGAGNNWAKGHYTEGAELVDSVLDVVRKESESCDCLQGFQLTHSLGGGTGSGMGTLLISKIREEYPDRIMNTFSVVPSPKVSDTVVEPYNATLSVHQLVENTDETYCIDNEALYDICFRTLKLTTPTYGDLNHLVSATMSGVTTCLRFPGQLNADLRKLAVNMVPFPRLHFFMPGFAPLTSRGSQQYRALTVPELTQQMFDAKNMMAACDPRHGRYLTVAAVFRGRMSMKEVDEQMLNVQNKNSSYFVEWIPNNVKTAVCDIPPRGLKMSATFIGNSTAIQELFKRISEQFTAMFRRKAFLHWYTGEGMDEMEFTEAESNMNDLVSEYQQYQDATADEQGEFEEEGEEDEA
Sequence of Apoptosis regulator Bcl-2 (Homo sapiens) (P10415 whole entry): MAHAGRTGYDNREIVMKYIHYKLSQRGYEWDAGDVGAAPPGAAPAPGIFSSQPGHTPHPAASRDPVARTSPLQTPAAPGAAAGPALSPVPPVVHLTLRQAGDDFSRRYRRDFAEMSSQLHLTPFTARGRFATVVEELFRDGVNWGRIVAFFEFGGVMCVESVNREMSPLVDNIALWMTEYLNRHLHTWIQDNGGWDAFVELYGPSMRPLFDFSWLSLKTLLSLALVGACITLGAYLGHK
Sequence of Cyclin-dependent kinase 1 (Homo sapiens) (P06493 whole entry, looked up): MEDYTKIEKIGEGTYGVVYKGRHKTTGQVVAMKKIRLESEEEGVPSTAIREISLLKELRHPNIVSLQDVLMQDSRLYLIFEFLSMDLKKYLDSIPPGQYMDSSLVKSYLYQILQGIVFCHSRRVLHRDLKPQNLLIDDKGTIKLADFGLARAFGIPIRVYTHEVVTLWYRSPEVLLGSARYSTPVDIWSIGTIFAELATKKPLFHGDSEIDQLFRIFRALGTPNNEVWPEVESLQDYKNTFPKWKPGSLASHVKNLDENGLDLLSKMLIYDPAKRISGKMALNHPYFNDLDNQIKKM

Activity [3]: Active
Structure (SMILES): CC(=O)O[C@H]1C(=O)[C@@]2(C)[C@H]([C@H](OC(=O)c3ccccc3)[C@]3(O)C[C@H](OC(=O)[C@H](O)[C@@H](NC(=O)c4ccccc4)c4ccccc4)C(C)=C1C3(C)C)[C@]1(OC(C)=O)CO[C@@H]1C[C@@H]2O
Activity [1]: Active
Activity [2]: Active
Activity [4]: Active
Activity [5]: Active
Activity [6]: Active

Activity [10]: Active
Kd [18]: 71.3 µM
inhibition [32]: Active
Activity [36]: Active
Activity [38]: Active
Structure (SMILES): CCC(C)[C@@H]1NC(=O)[C@@H](Cc2ccccc2)n2c1nc1c(c2=O)C=CC=CO1 (some centres undefined) [PROTUBOXEPIN A]
Activity [7]: 46.7%
inhibition [8]: Active
Activity [9]: Active
Activity [11]: Active
Activity [12]: Active
Activity [13]: 6.12%
Activity [14]: 23.7%
Activity [15]: Active
Activity [16]: 20.8%
Activity [17]: 10.1%
Activity [19]: 7%
Activity [20]: Active
Activity [21]: Dose-dependent effect
Activity [22]: Dose-dependent effect
Activity [23]: 18.8%
Activity [24]: 7.44%
Activity [25]: 34.4%
Activity [26]: 2.26%
Activity [27]: 26%
Activity [28]: Active
Activity [29]: 49.1%
Activity [30]: Active
Activity [31]: Dose-dependent effect
Activity [33]: Active
Activity [34]: 41.9%
Activity [35]: 39.5%
Activity [37]: 7.31%
Activity [39]: Active
Activity [40]: 10.8%
Activity [41]: Active
Activity [42]: Dose-dependent effect
Activity [43]: Active
Activity [44]: 20.5%
